The target in assay [1] is T1, H6XcNAGS-K (Xanthomonas campestris, UniProt A0A0H2X8L7).
T1 construct: gene XC_1873; full length, E. coli BL21(DE3), pET15b, N-terminal polyhistidine tag and thrombin site kept
T1 sequence (A0A0H2X8L7 1-447): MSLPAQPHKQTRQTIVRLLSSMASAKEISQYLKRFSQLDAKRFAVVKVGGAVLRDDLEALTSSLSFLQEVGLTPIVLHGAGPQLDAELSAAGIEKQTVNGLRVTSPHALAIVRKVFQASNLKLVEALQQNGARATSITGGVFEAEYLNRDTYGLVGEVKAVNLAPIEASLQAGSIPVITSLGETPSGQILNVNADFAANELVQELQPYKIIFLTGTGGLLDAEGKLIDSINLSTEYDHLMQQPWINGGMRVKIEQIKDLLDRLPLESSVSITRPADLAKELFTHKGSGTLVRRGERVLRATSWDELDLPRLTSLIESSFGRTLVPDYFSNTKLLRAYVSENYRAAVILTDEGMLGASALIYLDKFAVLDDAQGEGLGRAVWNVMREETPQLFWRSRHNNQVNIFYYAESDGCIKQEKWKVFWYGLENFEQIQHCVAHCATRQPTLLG
In words: synthase activity, LC-MS of N-acetylglutamate. The assay is classed as biochemical. To be noted: 50 mM L-glutamate, 2 mM AcCoA, pH 9.0, 30 °C.

Assay [2] addresses T1, H6XcNAGS-K. In words: kinase activity, colorimetric hydroxamate assay. The assay is classed as biochemical. To be noted: 100 mM N-acetylglutamate, 20 mM ATP, 40 mM MgCl2, 400 mM hydroxylamine, pH 6.0, 30 °C.

For `N=C(N)NCCC[C@H](N)C(=O)O` [L-arginine], the half-inhibition result was “presence of an affinity tag did not affect the inhibition of the synthase activity of XcNAGS-K” in assay [1]; “half-inhibition of the kinase activities of XcNAGS-K with and without polyhistidine differed two-fold” in assay [2].

Source of the values: publication PMC1865377, “A novel bifunctional N-acetylglutamate synthase-kinase from Xanthomonas campestris that is closely related to mammalian N-acetylglutamate synthase” (BMC Biochemistry, 2007).
